The subject of assay [1] is THP-1. As to the kind of experiment: Proliferation assay, CellTiter-Glo, 72 hour. To be noted: blood cancer cell line, read-out: Inhibition of proliferation, THP-1. Format: cell-based.
The subject of assay [2] is Hs822T. Briefly: Proliferation assay, CellTiter-Glo, 72 hour. Format: cell-based. Particulars: Ewing's sarcoma cell line, read-out: Inhibition of proliferation, Hs822T.
The subject of assay [3] is Hs863T. Briefly: Proliferation assay, CellTiter-Glo, 72 hour. Format: cell-based. To be noted: Ewing's sarcoma cell line, read-out: Inhibition of proliferation, Hs863T.
In assay [4] the target is FLAG-CDK7 WT (Homo sapiens (Human), UniProt P50613). Briefly: In vitro kinase assay of FLAG-CDK7 immunoprecipitated from treated HCT116 cells. Format: cell-based. To be noted: HCT116 cells treated 4 hours, dose-response. On the procedure: Following the treatment, the cells were washed 2-fold with cold PBS and then lysed in the following lysis buffer: 50 mM TrisHCl pH 8.0, 150 mM NaCl, 1% NP-40, 5 mM EDTA, 1 mM DTT, and protease/phosphatase cocktails. Following clearance, the lysates were treated with compound I-49 for pulldown (or CDK7 antibody for IP) overnight at 4° C. The lysates were then incubated with streptavidin agarose for pulldown (or Protein G Agarose for IP) for an additional 2-3 hours at 4° C. Agarose beads were washed 5 times with a lysis buffer and then boiled in 2X SDS for 10 minutes at 95° C.
Chain of FLAG-CDK7 WT (P50613 whole entry): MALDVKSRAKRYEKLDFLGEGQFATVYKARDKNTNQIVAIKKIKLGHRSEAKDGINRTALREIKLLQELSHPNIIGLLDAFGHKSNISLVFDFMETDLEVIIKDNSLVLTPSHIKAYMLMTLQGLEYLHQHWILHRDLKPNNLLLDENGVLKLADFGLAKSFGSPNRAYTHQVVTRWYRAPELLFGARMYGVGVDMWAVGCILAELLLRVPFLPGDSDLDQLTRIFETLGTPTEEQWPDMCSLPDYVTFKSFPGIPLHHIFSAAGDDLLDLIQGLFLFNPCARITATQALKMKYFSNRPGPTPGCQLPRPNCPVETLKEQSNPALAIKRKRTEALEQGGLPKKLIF
Chain of FLAG-CDK7 WT (P51946 whole entry partner): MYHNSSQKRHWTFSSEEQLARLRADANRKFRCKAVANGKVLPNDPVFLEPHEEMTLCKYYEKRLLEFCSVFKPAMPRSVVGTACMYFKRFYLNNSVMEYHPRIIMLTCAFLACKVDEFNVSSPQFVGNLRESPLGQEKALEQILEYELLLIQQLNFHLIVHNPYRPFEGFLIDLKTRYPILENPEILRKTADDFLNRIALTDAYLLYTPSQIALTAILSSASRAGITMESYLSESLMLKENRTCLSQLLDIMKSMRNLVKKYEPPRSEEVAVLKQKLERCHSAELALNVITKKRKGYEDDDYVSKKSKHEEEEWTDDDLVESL
Chain of FLAG-CDK7 WT (P51948 whole entry partner): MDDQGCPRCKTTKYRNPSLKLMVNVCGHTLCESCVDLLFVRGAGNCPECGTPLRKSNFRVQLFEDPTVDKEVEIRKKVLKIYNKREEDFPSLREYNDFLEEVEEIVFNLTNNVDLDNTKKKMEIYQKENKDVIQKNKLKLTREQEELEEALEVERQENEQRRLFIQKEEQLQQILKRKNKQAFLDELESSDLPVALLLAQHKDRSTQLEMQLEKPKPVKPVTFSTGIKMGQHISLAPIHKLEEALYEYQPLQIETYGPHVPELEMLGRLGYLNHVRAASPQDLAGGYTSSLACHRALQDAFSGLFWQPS
In vitro kinase assays with immunoprecipitated proteins (or recombinant CAK complexes) were performed as follows. Kinase reactions were performed in 25 μL of final volume of reaction buffer (50 mM Hepes, pH 7.5, 150 mM NaCl, 10 mM MgCl2, 5% glycerol, 25 μM ATP, and 10 μCi of [γ-32P]ATP). Each reaction contained 1 μg of RNAP II. Incubation was at 30° C. for 30-45 min. Reactions were terminated by addition of 5 μL of 5×SDS-PAGE sample buffer and incubated at 95° C. for 5 min. Reactions were analyzed by SDS-PAGE, and the dried gel was exposed to film or PhosphorImager plate.
HCT116 cells were generated stably expressing FLAG-CDK7 WT and C312S. […] CDK7 was then immunoprecipitated (IP) from each combination treatment using a FLAG antibody, and washed IPs were subjected to in vitro kinase assays (FIG. 4F). […]

Assay [5] has as its system patient-derived chronic lymphocytic leukemia (CLL) isolates. Briefly: Cell death of patient-derived CLL isolates, Annexin V staining, 24 hour. Format: cell-based, human. To be noted: read-out: Pro-death signaling, average EC50 values. On the procedure: Clinical isolates of CLL were cultured with compounds of Formula (I) or flavopiridol and assessed for cell death after a 24 hour time course by Annexin V staining. […] Anti-proliferative effect was measured using cell titer glo analysis.
PBMCs freshly isolated from peripheral blood are seeded in 24 well plates at a volume of 0.5 ml and a concentration of 2×10^6 cells/ml. Compounds and controls are added to respective wells in a total volume of 2.5 μl. Plates are mixed gently and incubated approximately 24 hours at 37° C., 5% CO2. Apoptosis was measured in all cells from each well using the Annexin V: FITC Apoptosis Detection Kit I (BD Biosciences). Normalized % death was calculated as follows: [(% Dead Drug−% Dead DMSO)/(100%−% Dead DMSO)]×100

The test system of assay [6] is RNAP II occupancy. As to the kind of experiment: RNAP II ChIP-seq in Jurkat cells. To be noted: 250 nM for 6 hours. Format: cell-based, human. On the procedure:
(§1) After the indicated treatment time, cells were crosslinked for 10 minutes at room temperature by the addition of one-tenth of the volume of 11% formaldehyde solution (11% formaldehyde, 50 mM Hepes (pH 7.3), 100 mM NaCl, 1 mM EDTA (pH 8.0), 0.5 mM EGTA (pH 8.0)) to the growth media followed by two washes with PBS. Following the final PBS wash, supernatant was aspirated, and the cell pellet was flash frozen in liquid nitrogen. Frozen crosslinked cells were stored at −80° C.
(§2) 50 μl of Dynal magnetic beads (Sigma) were blocked with 0.5% BSA (w/v) in PBS. Magnetic beads were bound with 5 μg of the indicated antibody. Antibodies used are as follows: Total RNAP II (Rpb1 N-terminus): Santa Cruz sc-899; CDK7: Bethyl A300-405A. Crosslinked cells were lysed with lysis buffer 1 (50 mM Hepes (pH 7.3), 140 mM NaCl, 1 mM EDTA, 10% glycerol, 0.5% NP-40, and 0.25% Triton X-100) and washed with lysis buffer 2 (10 mM Tris-HCl (pH 8.0), 200 mM NaCl, 1 mM EDTA (pH 8.0) and 0.5 mM EGTA (pH 8.0)). […]
(§3) Illumina sequencing libraries were generated, and data were processed according to Lin et al., Cell (2012) 151:56-67. […] These criteria preserved only reads that mapped uniquely to the genome with 1 or fewer mismatches. […]

Assay [7] deals with CDK7 occupancy. As to the kind of experiment: CDK7 ChIP-seq in Jurkat cells. Format: cell-based, human. The procedure:
as §1, §2, §3

As usually defined, the EC50 is the concentration needed to bring the measured effect to its halfway point. Turning to `CN(C)C/C=C/C(=O)Nc1ccc(C(=O)Nc2cccc(Nc3ncc(Cl)c(-c4c[nH]c5ccccc45)n3)c2)cc1` [Formula I-23], the figures for the IC50 in assay [1], in assay [2] and in assay [3] were below 500 nM, below 500 nM and 500 to 5000 nM, respectively. Besides, the “Inhibition of FLAG-CDK7 WT kinase activity” value in assay [4] was “inhibited FLAG-CDK7 WT in a dose-dependent fashion”. For the same molecule, the EC50 in assay [5] was below 200 nM. Besides, in assay [6], the “RNAP II occupancy at the promoter proximal pause site” value is on record as “drastically diminished”. Besides, the “CDK7 occupancy (association with chromatin)” value in assay [7] is “did not disrupt CDK7 occupancy”.

The record behind these values is patent publication US10787436B2, “Inhibitors of cyclin-dependent kinase 7 (CDK7)” (Dana-Farber Cancer Institute, Inc., priority 2012, dated 2020).
